Data on 21 compounds can be found in PubChem BioAssay (NCI).

Among the test systems are MOLT-4 leukemia; NCI-H460 lung; OVCAR-3 ovarian; PC-3 prostate; SF-539 CNS; CAKI-1 renal.
Assay in all cases: NCI anticancer screen, dose series, 48 h

Values joined by “and” are separate entries in the source; they are usually repeats but may differ in a detail not shown here. Equal entries are not always repeated.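 How tested: cells in 96-well plates exposed to compound for 48 hours at five concentrations. At the TGI there is no net growth.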 Where a SMILES comes first, the peptide text is derived from it. The star is where a group is joined. Fmoc = O=C(OCC1c2ccccc2-c2ccccc21)*; Boc = CC(C)(C)OC(=O)* Bounds are passed on as bounds.

Regarding `O=C1Cc2c([nH]c3cc(Br)ccc23)-c2ccccc2N1`, the TGI was 40.9 µM in the assay on MOLT-4 leukemia; 48.5 µM in the assay on NCI-H460 lung; 83.4 µM in the assay on OVCAR-3 ovarian; 44.3 µM in the assay with PC-3 prostate; 37.3 µM in the assay with SF-539 CNS.
In the case of `N=c1oc2ccc(Cl)cc2cc1C(=O)NC1CCCCC1`, the TGI in the assay on CAKI-1 renal, in the assay on MOLT-4 leukemia, in the assay on NCI-H460 lung, in the assay with OVCAR-3 ovarian, in the assay with PC-3 prostate and with SF-539 CNS was > 100 µM in each case.
Turning to `NC(=O)N=Nc1c2ccccc2n2[nH]ccc12`, the TGI in the assay on CAKI-1 renal, with MOLT-4 leukemia, in the assay on NCI-H460 lung, with OVCAR-3 ovarian, in the assay with PC-3 prostate and in the assay with SF-539 CNS was > 100 µM throughout.
As to `Cc1c(C=C(C#N)C#N)c(=O)n(C)c(=O)n1C`, the TGI in the assay on CAKI-1 renal, in the assay on MOLT-4 leukemia, with NCI-H460 lung, in the assay on OVCAR-3 ovarian, in the assay with PC-3 prostate and in the assay with SF-539 CNS was > 100 µM throughout.
Consider `C=[N+](CNC(=O)CNC(=O)C(Cc1ccccc1)NC(=O)OC(C)(C)C)C(=O)CNC(=O)C(Cc1ccccc1)NC(=O)OC(C)(C)C` (centres undefined), for which the TGI with CAKI-1 renal, in the assay on MOLT-4 leukemia, in the assay with NCI-H460 lung, in the assay on OVCAR-3 ovarian, in the assay with PC-3 prostate and in the assay on SF-539 CNS was > 100 µM each time.
In the case of `COc1ccc(-c2cc(-c3ccccc3)nc(N)n2)c(O)c1`, the TGI in the assay with MOLT-4 leukemia, with NCI-H460 lung, in the assay on OVCAR-3 ovarian, with PC-3 prostate and in the assay on SF-539 CNS was > 100 µM in each case.
As for `COc1cccc(-c2cc(=O)c3cc(N4CCCC4)ccc3[nH]2)c1`, the TGI in the assay with CAKI-1 renal is > 10 µM; with MOLT-4 leukemia, > 10 µM; in the assay with NCI-H460 lung, 1.42 µM; in the assay with OVCAR-3 ovarian, < 0.001 µM; in the assay with PC-3 prostate, > 10 µM; with SF-539 CNS, < 0.001 µM.
Take `C1COCCOP2(N3CC3)=NP(N3CC3)(=NP(N3CC3)(N3CC3)=N2)OCCOCCO1` (centres undefined): the TGI with CAKI-1 renal, in the assay with MOLT-4 leukemia, in the assay on OVCAR-3 ovarian, with PC-3 prostate and with SF-539 CNS was > 100 µM each time.
`CC(C)[C@H]1NC(=O)[C@H]2N=C(O[C@@H]2C)[C@@H]2CCCN2C(=O)[C@H](Cc2ccccc2)NC(=O)[C@@H]2COC(=N2)[C@@H](Cc2ccccc2)NC(=O)[C@@H]2COC1=N2`: the TGI with CAKI-1 renal, in the assay on MOLT-4 leukemia, with OVCAR-3 ovarian, in the assay on PC-3 prostate and in the assay on SF-539 CNS was > 100 µM throughout.
On to `COc1cc(C2SC(N)=Nc3c2c(C)nn3C(=O)c2ccc(Cl)cc2)ccc1O` (centres undefined), for which the TGI in the assay on CAKI-1 renal, in the assay on MOLT-4 leukemia, in the assay with NCI-H460 lung, in the assay on OVCAR-3 ovarian, in the assay with PC-3 prostate and with SF-539 CNS was > 10 µM each time.
As for `COc1ccccc1NC1=NCC(C)S1` (centres undefined), the TGI with CAKI-1 renal, in the assay with MOLT-4 leukemia, with NCI-H460 lung, with OVCAR-3 ovarian, in the assay on PC-3 prostate and with SF-539 CNS was > 100 µM throughout.
On to `COc1cc2c3c4c1OCc1c5c(cc(c1-4)CC3[N+](C)(C)CC2)OCO5` (centres undefined), for which the TGI with CAKI-1 renal was > 100 µM; in the assay on MOLT-4 leukemia, > 100 µM; in the assay with NCI-H460 lung, > 100 µM; in the assay on OVCAR-3 ovarian, > 100 µM; in the assay with PC-3 prostate, > 100 µM; with SF-539 CNS, > 96.6 µM.
Consider `OCC1(CNc2cc(Cl)ncn2)CCC1`, for which the TGI in the assay with MOLT-4 leukemia, in the assay with NCI-H460 lung, in the assay on OVCAR-3 ovarian, in the assay on PC-3 prostate and with SF-539 CNS was > 100 µM in each case.
With `CC(C)(C)OC(=O)NCCCCC(NC(=O)C(Cc1c[nH]c2ccccc12)NC(=O)OCC1c2ccccc2-c2ccccc21)C(=O)O` (centres undefined) (Fmoc-Trp-Lys(Boc)-OH; configuration not given here), the TGI in the assay on CAKI-1 renal is 31.5 µM; with MOLT-4 leukemia, 48.2 µM; with NCI-H460 lung it was > 100 µM; with OVCAR-3 ovarian, 40.4 µM; in the assay with PC-3 prostate it was > 100 µM; in the assay on SF-539 CNS, > 100 µM.
On to `OCC(O)C(O)C(C=NNc1ncnc2ccc(Br)cc12)=NNc1ncnc2ccc(Br)cc12` (centres undefined), for which the TGI in the assay with MOLT-4 leukemia is 12.1 µM and > 100 µM; with OVCAR-3 ovarian it was 28.2 µM and > 100 µM; in the assay on PC-3 prostate, 77.4 µM and > 100 µM; in the assay with SF-539 CNS, 33.7 µM and > 100 µM.
`Cn1c2c(c3c(=O)[nH]ncc31)CCCc1ccccc1-2`: the TGI in the assay with CAKI-1 renal is 69.9 µM; in the assay with MOLT-4 leukemia, 21.6 µM; in the assay with NCI-H460 lung, 67.7 µM; in the assay on OVCAR-3 ovarian, 86.4 µM; with PC-3 prostate it was > 100 µM; in the assay with SF-539 CNS, > 100 µM.
Take `CCOC(=O)C(C(=O)OCC)C(NC(=O)Nc1cc(C(F)(F)F)ccc1OC)(C(F)(F)F)C(F)(F)F`: the TGI in the assay on CAKI-1 renal was 91.5 µM; in the assay with MOLT-4 leukemia, 68.6 µM; with NCI-H460 lung, > 100 µM; in the assay with OVCAR-3 ovarian, 54.3 µM; in the assay on PC-3 prostate it was > 100 µM; with SF-539 CNS, 36.2 µM.
For the compound `O=c1ccc2nc3ccc(O)cc3oc-2c1`, the TGI in the assay with CAKI-1 renal is > 100 µM; in the assay on MOLT-4 leukemia, > 100 µM; with NCI-H460 lung, > 100 µM; with OVCAR-3 ovarian it was > 85.7 µM; in the assay with PC-3 prostate, > 100 µM; in the assay with SF-539 CNS it was > 59.8 µM.
Regarding `Cc1ccc2c(c1)C/C(=C\c1ccccc1C(=O)O)C2=O`, the TGI with CAKI-1 renal, in the assay on MOLT-4 leukemia, in the assay on NCI-H460 lung, in the assay on OVCAR-3 ovarian, in the assay on PC-3 prostate and in the assay on SF-539 CNS was > 100 µM throughout.
As to `CCO/N=C(/CC)c1ccc(Br)s1`, the TGI with CAKI-1 renal, in the assay with MOLT-4 leukemia, with NCI-H460 lung, with OVCAR-3 ovarian, with PC-3 prostate and in the assay with SF-539 CNS was > 100 µM each time.
Regarding `Nc1c(O)c(C(=O)O)cc2ccccc12`, the TGI with CAKI-1 renal is 53.8 µM; in the assay on MOLT-4 leukemia, 83.8 µM; in the assay with NCI-H460 lung it was > 100 µM; with OVCAR-3 ovarian, 94.5 µM; in the assay with PC-3 prostate, > 100 µM; in the assay with SF-539 CNS, > 100 µM.
